US6414158B1, “1,3,4-oxadiazine derivatives and their use as pesticides” (Bayer AKtiengesellschaft, priority 1996, dated 2002)

melting point: 125 to 128 °C
SMILES: CCN1C(=O)OCC(=O)N1Cc1ccc(Cl)nc1 [Example I-16, 4-(2-chloro-5-pyridylmethyl)-3-ethyl-1,3,4-oxadiazine-2,5-dione]
